Experimental findings from article PMC7200784, “In-vitro safety and off-target profile of the anti-parasitic arylmethylaminosteroid 1o” (Scientific Reports, 2020) are described below.

The test system of the test is Caco-2 cell barrier. The experiment in a line: Caco-2 cell barrier integrity (TEER and capacitance, cellZscope2). It counts as cell-based. Conditions: 20 h after addition, value before addition = 100%; 10 mM EGTA. Here is the method:
Twenty thousand CaCo-2 cells were seeded on 24-well ThinCerts (pre-coated with FCS for 30 min). In the lower compartment (basolateral), 1 ml culture medium per well was added. As a control, half of the ThinCerts were not seeded with cells. The ThinCerts were transferred to the cellZscope2 (nanoAnalytics). Two hundred µl of medium was added to the ThinCerts to reach a final volume of 300 µl in the upper compartment (apical). The TEER and capacitance were measured every hour. After 5 days, the TEER reached a constant value of 700–900 Ohm*cm² and the medium was replaced with EMEM with 2% FCS, 2 mM L-glutamine, 1x non-essential amino acids, and 110 nM hydrocortisone. The TEER and capacitance were measured every hour for 1 day. Sc1o (0 µM, 1 µM, 10 µM, 25 µM, 50 µM) diluted in EMEM with 2% FCS, 2 mM L-glutamine, 1x non-essential amino acids, and 110 nM hydrocortisone were added to the apical compartment. As a control, 10 mM of EGTA was used. The cellZscope2 module was transferred into the incubator for 24 h, and every 30 min the TEER and capacitance were detected. TEER and capacitance values at the time point of adding the compound solution were used as references to calculate the alteration (t0h-value). […] At time point 0h and after 24 h the medium of the basolateral and apical compartment was collected and stored at −20 °C and analysed by LC-MS/MS.

`O=C(O)CN(CCOCCOCCN(CC(=O)O)CC(=O)O)CC(=O)O` [EGTA, Ethylene glycol-bis(β-aminoethyl ether)-N,N,N′,N′-tetraacetic acid]: the “Relative TEER” value worked out at 0.12 ± 0.03% and the Relative capacitance came to 481 ± 168%.
